{"source": "patent US8557791B2", "about": "“Anti-tumor agent comprising cytidine derivative and carboplatin” (Taiho Pharmaceutical Co., Ltd., priority 2008, dated 2013)", "key": {"[1]": {"tested_on": "human head and neck cancer strain OCC-1", "experiment": "Survival of nude rats with subcutaneously transplanted human head and neck cancer strain OCC-1", "format": "in vivo, rat", "conditions": "carboplatin 40 mg/kg/day vs cisplatin 5 mg/kg/day as employed in the test", "experimental": "Male nude rats (F344/N Jcl-rnu) were divided in terms of body weight into groups (14 rats in each group). To each rat, a fragment (about 2×2 mm) of human head and neck cancer strain OCC-1 was subcutaneously transplanted into the back (day 0). Drug administration was started on the day following transplant (day 1). ECyd was administered to a rat through the caudal vein at a dose of 0.3 mg/kg on days 1, 3, 5, 8, 10, and 12. Carboplatin was administered to a rat through the caudal vein at a dose of 30 mg/kg or 40 mg/kg on days 1 and 8. Cisplatin was administered to a rat through the caudal vein at a dose of 5 mg/kg on day 1. […] Rats of a control group were not subjected to drug treatment.\nThereafter, the survival (days) of each rat was checked, and the survival rate of each group was calculated by the following equation 1. FIGS. 1 to 3 are graphs showing survival rates; in each graph the horizontal axis represents days and the vertical axis represents survival rate. Survival rate (%)=(no. of surviving rats/no. of rats tested)×100 (Equation 1)"}, "[2]": {"tested_on": "human lung cancer strain LX-1", "experiment": "Antitumor effect in nude mice with subcutaneously transplanted human lung cancer strain LX-1", "format": "in vivo, mouse", "conditions": "day 15, LX-1 s.c., i.v. days 1 and 8, ECyd 2 mg/kg, carboplatin 70 mg/kg; for RTV Mean ± SD (Relative Tumor Volume): male nude mice (BALB/cA jcl-nu); for IR (Inhibition Rate of tumor proliferation with respect to control): male nude mice", "experimental": "A fragment (about 2×2 mm) of human lung cancer strain LX-1 was subcutaneously transplanted in the back of each of male nude mice (BALB/cA jcl-nu). When the average tumor volume (longer diameter (mm)×shorter diameter (mm)×shorter diameter (mm)×½) of these mice reached about 200 mm^3, the mice were divided into groups based on the tumor volume (8 mice in each group) (day 0).\nDrug administration was started on the day following transplant (day 1). ECyd and carboplatin were administered to a mouse through the caudal vein at a dose of 2 mg/kg and 70 mg/kg, respectively, on days 1 and 8. Mice of a control group were not subjected to drug treatment.\nOn day 15, the ratio of tumor volume to that at the grouping (Relative Tumor Volume; RTV) was calculated. In addition, percent inhibition of tumor proliferation of a group with respect to the control group (Inhibition Rate (%); IR (%)) was calculated by equation 2.\nFrom the tumor volume on day 15, enhancement in antitumor effect of the combined administration group with respect to the ECyd-only administration group and the carboplatin-only administration group was analyzed through the Student's t-test (both sides). The antitumor effect of the combined administration group with respect to either single administration group had significance value (p value) of less than 0.05, confirming that administration of ECyd and carboplatin in combination is statistically significant. IR (%)=[1−average tumor volume of treated group/average tumor volume of control group]×100 (Equation 2)"}}}
{"smiles": "N.N.O=C([O-])C1(C(=O)[O-])CCC1.[Pt+2]", "note": "[carboplatin, cis-diammine(1,1-cyclobutanedicarboxylato)platinum(II)]", "values": [{"measurement": "antitumor effect of the platinum agents compared with each other", "setting": "[1]", "value": "almost the same antitumor effect"}, {"measurement": "RTV Mean ± SD (Relative Tumor Volume)", "setting": "[2]", "value": "5.53 ± 1.75"}, {"measurement": "IR (Inhibition Rate of tumor proliferation with respect to control)", "setting": "[2]", "value": 42.8, "unit": "%"}]}
{"smiles": "N.N.[Cl][Pt][Cl]", "note": "[cisplatin]", "values": [{"measurement": "antitumor effect of the platinum agents compared with each other", "setting": "[1]", "value": "almost the same antitumor effect"}]}
{"smiles": "C#C[C@@]1(O)[C@@H](CO)O[C@@H](n2ccc(N)nc2=O)[C@@H]1O", "note": "[ECyd, 1-(3-C-Ethynyl-β-D-ribopentofuranosyl)cytosine]", "values": [{"measurement": "RTV Mean ± SD (Relative Tumor Volume)", "setting": "[2]", "value": "5.43 ± 1.51"}, {"measurement": "IR (Inhibition Rate of tumor proliferation with respect to control)", "setting": "[2]", "value": 43.8, "unit": "%"}]}
